# Data published in PubChem BioAssay AID2060893 (Molecular Pharmacology Branch, DTP, NCI, 2025).
# System: K86415-001-R-J1-PDC complex spheroids, viability
# Assay: Anticancer human tumor K86415-001-R-J1-PDC patient-derived lung adenocarcinoma cell line growth inhibition [RAS]
# Conditions: for IC50: curve of first compound; for viability, T/C: stronger effect = lower value
# How it was run: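 Tumour cells grown as complex spheroids with HUVEC endothelial cells and mesenchymal stem cells, treated with RAS pathway inhibitor combinations. Each agent spans half-log steps from near clinical Cmax, or 10 microM where Cmax is unknown.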
# [1] = second compound 0.00316 µM, first compound 0.00316 µM
# [2] = second compound 0.00316 µM, first compound 0.01 µM
# [3] = second compound 0.00316 µM, first compound 0.0316 µM
# [4] = second compound 0.00316 µM, first compound 0.1 µM
# [5] = second compound 0.00316 µM, first compound 0.316 µM
# [6] = second compound 0.00316 µM, first compound 1 µM
# [7] = second compound 0.01 µM, first compound 0.00316 µM
# [8] = second compound 0.01 µM, first compound 0.01 µM
# [9] = second compound 0.01 µM, first compound 0.0316 µM
# [10] = second compound 0.01 µM, first compound 0.1 µM
# [11] = second compound 0.01 µM, first compound 0.316 µM
# [12] = second compound 0.01 µM, first compound 1 µM
# [13] = second compound 0.0316 µM, first compound 0.00316 µM
# [14] = second compound 0.0316 µM, first compound 0.01 µM
# [15] = second compound 0.0316 µM, first compound 0.0316 µM
# [16] = second compound 0.0316 µM, first compound 0.1 µM
# [17] = second compound 0.0316 µM, first compound 0.316 µM
# [18] = second compound 0.0316 µM, first compound 1 µM
# [19] = second compound 0.1 µM, first compound 0.00316 µM
# [20] = second compound 0.1 µM, first compound 0.01 µM
# [21] = second compound 0.1 µM, first compound 0.0316 µM
# [22] = second compound 0.1 µM, first compound 0.1 µM
# [23] = second compound 0.1 µM, first compound 0.316 µM
# [24] = second compound 0.1 µM, first compound 1 µM
# [25] = second compound 0.316 µM, first compound 0.00316 µM
# [26] = second compound 0.316 µM, first compound 0.01 µM
# [27] = second compound 0.316 µM, first compound 0.0316 µM
# [28] = second compound 0.316 µM, first compound 0.1 µM
# [29] = second compound 0.316 µM, first compound 0.316 µM
# [30] = second compound 0.316 µM, first compound 1 µM
# [31] = second compound 1 µM, first compound 0.00316 µM
# [32] = second compound 1 µM, first compound 0.01 µM
# [33] = second compound 1 µM, first compound 0.0316 µM
# [34] = second compound 1 µM, first compound 0.1 µM
# [35] = second compound 1 µM, first compound 0.316 µM
# [36] = second compound 1 µM, first compound 1 µM
# 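Also: spheroids exposed to agents for seven days before readout.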
compound,measurement,setting,value
CC1(C)CCC(Nc2ncc(C(F)(F)F)c(-c3c[nH]c4c(P(C)(C)=O)c(C#N)ccc34)n2)CN1 (stereo not drawn) + C#Cc1c(F)ccc2cc(O)cc(-c3ncc4c(N5CC6CCC(C5)N6)nc(OCC56CCCN5CC(F)C6)nc4c3F)c12,IC50,second compound 0.0316 µM,0.3 µM
same,IC50,second compound 0.1 µM,> 0.3 µM
same,IC50,second compound 0.316 µM,0.3 µM
same,IC50,second compound 1 µM,> 0.3 µM
same,IC50,second compound 3.16 µM,> 0.3 µM
same,IC50,second compound 10 µM,< 0.000949 µM
same,"viability, T/C","second compound 0.0316 µM, first compound 0.000949 µM",103%
same,"viability, T/C","second compound 0.0316 µM, first compound 0.003 µM",131%
same,"viability, T/C","second compound 0.0316 µM, first compound 0.00949 µM",75.3%
same,"viability, T/C","second compound 0.0316 µM, first compound 0.03 µM",59.8%
same,"viability, T/C","second compound 0.0316 µM, first compound 0.0949 µM",56.6%
same,"viability, T/C","second compound 0.0316 µM, first compound 0.3 µM",55.5%
same,"viability, T/C","second compound 0.1 µM, first compound 0.000949 µM",103%
same,"viability, T/C","second compound 0.1 µM, first compound 0.003 µM",118%
same,"viability, T/C","second compound 0.1 µM, first compound 0.00949 µM",77.3%
same,"viability, T/C","second compound 0.1 µM, first compound 0.03 µM",62%
same,"viability, T/C","second compound 0.1 µM, first compound 0.0949 µM",57.4%
same,"viability, T/C","second compound 0.1 µM, first compound 0.3 µM",61%
same,"viability, T/C","second compound 0.316 µM, first compound 0.000949 µM",101%
same,"viability, T/C","second compound 0.316 µM, first compound 0.003 µM",119%
same,"viability, T/C","second compound 0.316 µM, first compound 0.00949 µM",78.3%
same,"viability, T/C","second compound 0.316 µM, first compound 0.03 µM",60.4%
same,"viability, T/C","second compound 0.316 µM, first compound 0.0949 µM",62.8%
same,"viability, T/C","second compound 0.316 µM, first compound 0.3 µM",61.9%
same,"viability, T/C","second compound 1 µM, first compound 0.000949 µM",78.5%
same,"viability, T/C","second compound 1 µM, first compound 0.003 µM",103%
same,"viability, T/C","second compound 1 µM, first compound 0.00949 µM",76.5%
same,"viability, T/C","second compound 1 µM, first compound 0.03 µM",57.4%
same,"viability, T/C","second compound 1 µM, first compound 0.0949 µM",60.6%
same,"viability, T/C","second compound 1 µM, first compound 0.3 µM",65.5%
same,"viability, T/C","second compound 3.16 µM, first compound 0.000949 µM",39.1%
same,"viability, T/C","second compound 3.16 µM, first compound 0.003 µM",64.3%
same,"viability, T/C","second compound 3.16 µM, first compound 0.00949 µM",60.5%
same,"viability, T/C","second compound 3.16 µM, first compound 0.03 µM",49.5%
same,"viability, T/C","second compound 3.16 µM, first compound 0.0949 µM",47.9%
same,"viability, T/C","second compound 3.16 µM, first compound 0.3 µM",55.8%
same,"viability, T/C","second compound 10 µM, first compound 0.000949 µM",19%
same,"viability, T/C","second compound 10 µM, first compound 0.003 µM",22%
same,"viability, T/C","second compound 10 µM, first compound 0.00949 µM",26.7%
same,"viability, T/C","second compound 10 µM, first compound 0.03 µM",29.1%
same,"viability, T/C","second compound 10 µM, first compound 0.0949 µM",33.6%
same,"viability, T/C","second compound 10 µM, first compound 0.3 µM",34.3%
C=CC(=O)Nc1cc(Nc2nccc(-c3cn(C)c4ccccc34)n2)c(OC)cc1N(C)CCN(C)C + C=CC(=O)N1CCN(c2nc(OCC3CCCN3C)nc3c(F)c(-c4nc(N)cc(C)c4C(F)(F)F)c(Cl)cc23)C(C)C1,IC50,second compound 0.00316 µM,< 0.00316 µM
same,IC50,second compound 0.01 µM,< 0.00316 µM
same,IC50,second compound 0.0316 µM,< 0.00316 µM
same,IC50,second compound 0.1 µM,< 0.00316 µM
same,IC50,second compound 0.316 µM,< 0.00316 µM
same,IC50,second compound 1 µM,< 0.00316 µM
same,"viability, T/C",[1],19.7%
same,"viability, T/C",[2],17.1%
same,"viability, T/C",[3],15.6%
same,"viability, T/C",[4],13.2%
same,"viability, T/C",[5],8.17%
same,"viability, T/C",[6],7.25%
same,"viability, T/C",[7],11.2%
same,"viability, T/C",[8],10.3%
same,"viability, T/C",[9],11%
same,"viability, T/C",[10],8.19%
same,"viability, T/C",[11],6.56%
same,"viability, T/C",[12],6.11%
same,"viability, T/C",[13],10.1%
same,"viability, T/C",[14],11.4%
same,"viability, T/C",[15],8.27%
same,"viability, T/C",[16],6%
same,"viability, T/C",[17],5.17%
same,"viability, T/C",[18],5.86%
same,"viability, T/C",[19],10%
same,"viability, T/C",[20],9.55%
same,"viability, T/C",[21],8.9%
same,"viability, T/C",[22],7.91%
same,"viability, T/C",[23],5.85%
same,"viability, T/C",[24],5.65%
same,"viability, T/C",[25],8.48%
same,"viability, T/C",[26],10.5%
same,"viability, T/C",[27],11.3%
same,"viability, T/C",[28],6.83%
same,"viability, T/C",[29],5.85%
same,"viability, T/C",[30],5.41%
same,"viability, T/C",[31],11%
same,"viability, T/C",[32],10.2%
same,"viability, T/C",[33],7.67%
same,"viability, T/C",[34],8.2%
same,"viability, T/C",[35],7.08%
same,"viability, T/C",[36],6.01%
CC(Nc1ccc2c(c1)OCCn1cc(N3C(=O)OCC3C(F)F)nc1-2)C(N)=O (stereo not drawn) + C=CC(=O)N1CCN(c2nc(OCC3CCCN3C)nc3c(F)c(-c4nc(N)cc(C)c4C(F)(F)F)c(Cl)cc23)C(C)C1,IC50,second compound 0.00316 µM,< 0.0316 µM
same,IC50,second compound 0.01 µM,< 0.0316 µM
same,IC50,second compound 0.0316 µM,< 0.0316 µM
same,IC50,second compound 0.1 µM,< 0.0316 µM
same,IC50,second compound 0.316 µM,< 0.0316 µM
same,IC50,second compound 1 µM,< 0.0316 µM
same,"viability, T/C",[3],12.4%
same,"viability, T/C",[4],11%
same,"viability, T/C",[5],9.71%
same,"viability, T/C",[6],13.9%
same,"viability, T/C","second compound 0.00316 µM, first compound 3.16 µM",8.57%
same,"viability, T/C","second compound 0.00316 µM, first compound 10 µM",4.65%
same,"viability, T/C",[9],10.6%
same,"viability, T/C",[10],8.09%
same,"viability, T/C",[11],7.67%
same,"viability, T/C",[12],4.13%
same,"viability, T/C","second compound 0.01 µM, first compound 3.16 µM",2.86%
same,"viability, T/C","second compound 0.01 µM, first compound 10 µM",1.6%
same,"viability, T/C",[15],8.44%
same,"viability, T/C",[16],6.97%
same,"viability, T/C",[17],5.95%
same,"viability, T/C",[18],3.55%
same,"viability, T/C","second compound 0.0316 µM, first compound 3.16 µM",2.24%
same,"viability, T/C","second compound 0.0316 µM, first compound 10 µM",1.34%
same,"viability, T/C",[21],8.36%
same,"viability, T/C",[22],6.36%
same,"viability, T/C",[23],3.79%
same,"viability, T/C",[24],3.04%
same,"viability, T/C","second compound 0.1 µM, first compound 3.16 µM",1.94%
same,"viability, T/C","second compound 0.1 µM, first compound 10 µM",1.11%
same,"viability, T/C",[27],8.27%
same,"viability, T/C",[28],6.69%
same,"viability, T/C",[29],4.1%
same,"viability, T/C",[30],5.15%
same,"viability, T/C","second compound 0.316 µM, first compound 3.16 µM",2.4%
same,"viability, T/C","second compound 0.316 µM, first compound 10 µM",1.49%
same,"viability, T/C",[33],7.44%
same,"viability, T/C",[34],6.59%
same,"viability, T/C",[35],4.3%
same,"viability, T/C",[36],2.92%
same,"viability, T/C","second compound 1 µM, first compound 3.16 µM",2.11%
same,"viability, T/C","second compound 1 µM, first compound 10 µM",1.04%
O=C(c1ccc(F)c(F)c1Nc1ccc(I)cc1F)N1CC(O)([C@@H]2CCCCN2)C1 + C=CC(=O)N1CCN(c2nc(OCC3CCCN3C)nc3c(F)c(-c4nc(N)cc(C)c4C(F)(F)F)c(Cl)cc23)C(C)C1,IC50,second compound 0.00316 µM,< 0.00316 µM
same,IC50,second compound 0.01 µM,< 0.00316 µM
same,IC50,second compound 0.0316 µM,< 0.00316 µM
same,IC50,second compound 0.1 µM,< 0.00316 µM
same,IC50,second compound 0.316 µM,< 0.00316 µM
same,IC50,second compound 1 µM,< 0.00316 µM
same,"viability, T/C",[1],18.7%
same,"viability, T/C",[2],15.5%
same,"viability, T/C",[3],11.7%
same,"viability, T/C",[4],11.2%
same,"viability, T/C",[5],6.3%
same,"viability, T/C",[6],3.59%
same,"viability, T/C",[7],10.7%
same,"viability, T/C",[8],9.82%
same,"viability, T/C",[9],7.43%
same,"viability, T/C",[10],7.21%
same,"viability, T/C",[11],5.24%
same,"viability, T/C",[12],2.8%
same,"viability, T/C",[13],10.5%
same,"viability, T/C",[14],8.28%
same,"viability, T/C",[15],7.31%
same,"viability, T/C",[16],5.71%
same,"viability, T/C",[17],6.7%
same,"viability, T/C",[18],2.39%
same,"viability, T/C",[19],9.48%
same,"viability, T/C",[20],8.63%
same,"viability, T/C",[21],6.77%
same,"viability, T/C",[22],5.29%
same,"viability, T/C",[23],3.4%
same,"viability, T/C",[24],2.5%
same,"viability, T/C",[25],9.04%
same,"viability, T/C",[26],7.51%
same,"viability, T/C",[27],6.81%
same,"viability, T/C",[28],5.26%
same,"viability, T/C",[29],5.12%
same,"viability, T/C",[30],1.9%
same,"viability, T/C",[31],10%
same,"viability, T/C",[32],8.81%
same,"viability, T/C",[33],8.35%
same,"viability, T/C",[34],5.6%
same,"viability, T/C",[35],4.91%
same,"viability, T/C",[36],2.61%
